The text below walks through data of patent publication US4738975A, “Pyridine derivatives, and use as anti-ulcer agents” (Takeda Chemical Industries, Ltd., priority 1985, dated 1988).

One series relates to gastric mucosa. Kind of series: gastric mucosal injury induced by ethanol (action of protecting gastric mucosa). In kind it is in vivo, Male Sprague-Dawley rats. Particulars: Rattus norvegicus, po; 6 rats per group; doses 3, 10 and 30 mg/kg; 30 min before 1 ml of 100% ethanol; read-out: Action of protecting gastric mucosa ID50. The method, then:
As a method of determining the ability to protect gastric mucosa, gastric mocosal injury induced by ethanol [Robert A., Gastroenterology 77, 761 (1979)] is often used. This method was applied to evaluation of the compounds of this invention. Male Sprague-Dawley rats 7-weeks old were fasted for 24 hours. These animals were administered test compounds into the stomach by using a gastric tube. After 30 minutes, 1 ml of 100% ethanol was administered orally. The animals were killed by carbon dioxide gas 60 minutes after ethanol administration. The stomach was removed together with the lower part of esophagus and the duodenum. The esophagus was clipped, 10 ml of 1% formalin solution was instilled into the stomach from the duodenum, and then the duodenum was clipped. The whole stomach was immersed in 1% formalin solution. About 15 minutes later, the stomachs were opened along the greater curvature. Length of the lesions which occurred in the gastric corpus mucosa was measured under a dissecting microscope with a square-grid eye piece (×10). The sum total length of the individual lesions in each animal was measured, and the average value per group was calculated. Based on the difference between the average value of each group and that of the control group, the inhibition rate was determined. The test compound was suspended in a 5% gum arabic solution, and administered in a volume of 2 ml/kg. | administered in a dose of 3, 10 and 30 mg/kg to determine ID50.

Another series in a line: oral toxicity in mice. Particulars: oral administration, 500 mg/kg. In kind it is in vivo.

Take `COc1ccnc(C[S+]([O-])c2nc3cc(C(F)(F)F)ccc3[nH]2)c1C` (stereo not shown) [5-CF3, CH3, CH3, H, reference compound]: the ED50 in the series with gastric mucosa was determined as 24 mg/kg.

For the compound `COc1ccc2[nH]c([S+]([O-])Cc3ncc(C)c(OC)c3C)nc2c1` (stereo not shown) [5-OCH3, CH3, CH3, CH3, reference compound], the ED50 with gastric mucosa turned out to be 22 mg/kg.

Turning to `COc1ccnc(C[S+]([O-])c2nc3ccccc3[nH]2)c1OC` (stereo not shown) [Example 6, 2-[(3,4-dimethoxypyrid-2-yl)methylsulfinyl]benzimidazole], the ED50 in the series with gastric mucosa worked out at 3.2 mg/kg. In addition, the fatal effect entry in “oral toxicity in mice” was “no fatal effect”. `COc1ccnc(C[S+]([O-])c2nc3ccc(C(F)(F)F)cc3[nH]2)c1OC` (stereo not shown) [Example 9, 2-[(3,4-dimethoxypyrid-2-yl)methylsulfinyl]-5-trifluoromethylbenzimidazole]: the ED50 in the series with gastric mucosa is 3 mg/kg. As for `COc1c(OCC(F)(F)F)ccnc1C[S+]([O-])c1nc2ccccc2[nH]1` (stereo not shown) [Example 18, 2-[[3-methoxy-4-(2,2,2-trifluoroethoxy)pyrid-2-yl]methylsulfinyl]benzimidazole], in the series with gastric mucosa, the ED50 is 6.2 mg/kg. The fatal effect entry in “oral toxicity in mice” was “no fatal effect”.
